For this assay, the target named is recombinant Human Phosphodiesterase B2 (PDE4B2) (Homo sapiens, UniProt Q07343). The assay is described as follows: Human Phosphodiesterase B2 Radiometric Assay (yttrium silicate SPA beads, [3H]cyclic AMP). The settings on record: recombinant human PDE4B2, radiometric SPA assay, 8 nM [3H]cyclic AMP; read-out: PDE4B2 pIC50 (converted). The assay is classed as biochemical. An outline of the steps:
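Read-out is scintillation proximity: yttrium silicate beads (with 18 mM ZnSO4, added to stop the reaction) bind 5′AMP formed from 8 nM [3H]cAMP over 20 min. Beforehand, compound and 0.1 mg/mL enzyme were preincubated 30 min at 30 °C in pH 7.5 HEPES buffer with MgCl2, EGTA and Brij 35; pIC50 values were curve-fitted.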
recombinant Human Phosphodiesterase B2 (PDE4B2), sequence (Q07343 1-564 isoform Q07343-2): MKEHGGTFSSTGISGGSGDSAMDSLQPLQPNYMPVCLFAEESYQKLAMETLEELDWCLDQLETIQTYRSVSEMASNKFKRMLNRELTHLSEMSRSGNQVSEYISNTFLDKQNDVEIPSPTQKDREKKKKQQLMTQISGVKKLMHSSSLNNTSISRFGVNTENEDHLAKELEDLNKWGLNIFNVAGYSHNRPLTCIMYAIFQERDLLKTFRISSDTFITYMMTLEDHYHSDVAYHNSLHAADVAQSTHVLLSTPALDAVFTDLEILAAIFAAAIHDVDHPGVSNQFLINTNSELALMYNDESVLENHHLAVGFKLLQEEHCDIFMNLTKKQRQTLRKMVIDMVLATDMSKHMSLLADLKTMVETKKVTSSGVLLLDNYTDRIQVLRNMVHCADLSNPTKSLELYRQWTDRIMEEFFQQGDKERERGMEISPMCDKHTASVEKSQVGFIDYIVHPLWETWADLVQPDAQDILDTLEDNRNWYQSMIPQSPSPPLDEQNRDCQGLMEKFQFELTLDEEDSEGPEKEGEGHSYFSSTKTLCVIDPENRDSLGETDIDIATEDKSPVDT
On to `C[C@H](O)CN(C)Cc1cc(O)ccc1-c1cccc(-n2c(=O)n([C@H]3CC[C@@H](NCc4cn5cc(F)ccc5n4)CC3)c(=O)c3cc(F)cnc32)c1` (relative stereo) [Example 318, 6-fluoro-3-(cis-4-{[(6-fluoroimidazo[1,2-a]pyridin-2-yl)methyl]amino}cyclohexyl)-1-(4′-hydroxy-2′-{[[(2S)-2-hydroxypropyl](methyl)amino]methyl}biphenyl-3-yl)pyrido[2,3-d]pyrimidine-2,4(1H,3H)-dione], for which the IC50 was 2 nM.

On to `O=C(N[C@H]1CC[C@@H](n2c(=O)c3cc(F)cnc3n(-c3cccc(-c4ccccc4)c3)c2=O)CC1)c1cn2ccccc2n1` [Example 3, N-[cis-4-(1-biphenyl-3-yl-6-fluoro-2,4-dioxo-1,4-dihydropyrido[2,3-d]pyrimidin-3(2H)-yl)cyclohexyl]imidazo[1,2-a]pyridine-2-carboxamide], for which the IC50 was 0.0316 nM.

Consider `CCN(CC)CCN(C)Cc1ccc(-c2cccc(-n3c(=O)n([C@H]4CC[C@@H](NC(=O)c5cn6c(n5)CCCC6)CC4)c(=O)c4cc(F)cnc43)c2)cc1` [Example 225, N-{cis-4-[1-(4′-{[[2-(diethylamino)ethyl](methyl)amino]methyl}biphenyl-3-yl)-6-fluoro-2,4-dioxo-1,4-dihydropyrido[2,3-d]pyrimidin-3(2H)-yl]cyclohexyl}-5,6,7,8-tetrahydroimidazo[1,2-a]pyridine-2-carboxamide], for which the IC50 was 0.0158 nM.

Regarding `O=C(N[C@H]1CC[C@@H](n2c(=O)c3cc(F)cnc3n(-c3cccc(-c4ccc(OCCCN5CCOCC5)cc4)c3)c2=O)CC1)c1cn2cc(F)ccc2n1` [Example 81, 6-fluoro-N-{cis-4-[6-fluoro-1-[4′-(3-morpholin-4-ylpropoxy)biphenyl-3-yl]-2,4-dioxo-1,4-dihydropyrido[2,3-d]pyrimidin-3(2H)-yl]cyclohexyl}imidazo[1,2-a]pyridine-2-carboxamide], the IC50 is 0.00631 nM.

For the molecule `CN(C)C1(C(=O)N[C@H]2CC[C@@H](n3c(=O)c4cc(F)cnc4n(-c4cccc(-c5ccc(CN6CCOCC6)cc5)c4)c3=O)CC2)CC1` [Example 124, 1-(dimethylamino)-N-{cis-4-[6-fluoro-1-[4′-(morpholin-4-ylmethyl)biphenyl-3-yl]-2,4-dioxo-1,4-dihydropyrido[2,3-d]pyrimidin-3(2H)-yl]cyclohexyl}cyclopropane-carboxamide], the IC50 was 0.00631 nM.

For the molecule `O=C(N[C@H]1CC[C@@H](n2c(=O)c3cc(F)cnc3n(-c3cccc(-c4ccc(CN5CCC(N6CCCCC6)CC5)cc4)c3)c2=O)CC1)c1cnc2ccccc2n1` [Example 296, N-{cis-4-[1-[4′-(1,4′-bipiperidin-1′-ylmethyl)biphenyl-3-yl]-6-fluoro-2,4-dioxo-1,4-dihydropyrido[2,3-d]pyrimidin-3(2H)-yl]cyclohexyl} quinoxaline-2-carboxamide], the IC50 is 0.01 nM.

With `O=c1c2cc(F)cnc2n(-c2cccc(-c3ccc(O)cc3CN3CCOCC3)c2)c(=O)n1[C@H]1CC[C@@H](NCc2cccn3ccnc23)CC1` [Example 373, 6-fluoro-1-[4′-hydroxy-2′-(morpholin-4-ylmethyl)biphenyl-3-yl]-3-{cis-4-[(imidazo[1,2-a]pyridin-8-ylmethyl)amino]cyclohexyl} pyrido[2,3-d]pyrimidine-2,4(1H,3H)-dione], the IC50 is 0.158 nM.

Turning to `O=C(N[C@H]1CC[C@@H](n2c(=O)c3cc(F)cnc3n(-c3cccc(-c4ccc(CN5CCCNCC5)cc4)c3)c2=O)CC1)c1cnc2ccccc2n1` [Example 352, N-{cis-4-[1-[4′-(1,4-diazepan-1-ylmethyl)biphenyl-3-yl]-6-fluoro-2,4-dioxo-1,4-dihydropyrido[2,3-d]pyrimidin-3(2H)-yl]cyclohexyl} quinoxaline-2-carboxamide], the IC50 is 0.0158 nM.

Regarding `Cc1cc(C(=O)N[C@H]2CC[C@@H](n3c(=O)c4cc(F)cnc4n(-c4cccc(-c5ccc(CNCCC(C)C)cc5)c4)c3=O)CC2)nn1C` [Example 115, N-{cis-4-[6-fluoro-1-(4′-{[(3-methylbutyl)amino]methyl}biphenyl-3-yl)-2,4-dioxo-1,4-dihydropyrido[2,3-d]-pyrimidin-3(2H)-yl]cyclohexyl}-1,5-dimethyl-1H-pyrazole-3-carboxamide], the IC50 was 0.0398 nM.

Take `O=c1c2cc(F)cnc2n(-c2cccc(-c3ccc(O)cc3CN3CCCOCC3)c2)c(=O)n1[C@H]1CC[C@@H](NCc2ncc3ccccn23)CC1` [Example 371, 6-fluoro-1-[4′-hydroxy-2′-(1,4-oxazepan-4-ylmethyl)biphenyl-3-yl]-3-{cis-4-[(imidazo[1,5-a]pyridin-3-ylmethyl)amino]cyclohexyl}pyrido[2,3-d]pyrimidine-2,4(1H,3H)-dione]: the IC50 is 0.398 nM.

`Cc1ccc(-c2cccc(-n3c(=O)n([C@H]4CC[C@@H](N)CC4)c(=O)c4cc(F)cnc43)c2)cc1` [Example 47, 3-(cis-4-aminocyclohexyl)-6-fluoro-1-(4′-methylbiphenyl-3-yl)pyrido[2,3-d]pyrimidine-2,4(1H,3H)-dione]: the IC50 was 2 nM.

As to `CC(C)N1CCN(Cc2ccc(-c3cccc(-n4c(=O)n([C@H]5CC[C@@H](NCc6cccc(C#N)c6)CC5)c(=O)c5cc(F)cnc54)c3)cc2)CC1` [Example 259, 3-[({cis-4-[6-fluoro-1-{4′-[(4-isopropylpiperazin-1-yl)methyl]biphenyl-3-yl}-2,4-dioxo-1,4-dihydropyrido[2,3-d]pyrimidin-3(2H)-yl]cyclohexyl}amino)methyl] benzonitrile], the IC50 was 0.631 nM.

Regarding `Cc1cc(C(=O)N[C@H]2CC[C@@H](n3c(=O)c4cc(F)cnc4n(-c4cccc(-c5ccc(CN6CCNCC6)cc5)c4)c3=O)CC2)nn1C` [Example 228, N-{cis-4-[6-fluoro-2,4-dioxo-1-[4′-(piperazin-1-ylmethyl)biphenyl-3-yl]-1,4-dihydropyrido[2,3-d]pyrimidin-3(2H)-yl]cyclohexyl}-1,5-dimethyl-1H-pyrazole-3-carboxamide], the IC50 is 0.0251 nM.

For the molecule `Cc1cccc(C(=O)N[C@H]2CC[C@@H](n3c(=O)c4cc(F)cnc4n(-c4cccc(-c5ccc(CN6CCCN(C)CC6)cc5)c4)c3=O)CC2)n1` [Example 308, N-{cis-4-[6-fluoro-1-{4′-[(4-methyl-1,4-diazepan-1-yl)methyl]biphenyl-3-yl}-2,4-dioxo-1,4-dihydropyrido[2,3-d]pyrimidin-3 (2H)-yl]cyclohexyl}-6-methylpyridine-2-carboxamide], the IC50 was 0.0631 nM.

Turning to `Cc1oncc1C(=O)N[C@H]1CC[C@@H](n2c(=O)c3cc(F)cnc3n(-c3cccc(-c4ccc(CN5CCN(C(C)C)CC5)cc4)c3)c2=O)CC1` [Example 240, N-{cis-4-[6-fluoro-1-{4′-[(4-isopropylpiperazin-1-yl)methyl]biphenyl-3-yl}-2,4-dioxo-1,4-di-hydropyrido[2,3-d]pyrimidin-3(2H)-yl]cyclohexyl}-5-methyl-isoxazole-4-carboxamide], the IC50 was 0.501 nM.

As for `C[C@@H]1CN(Cc2ccc(-c3cccc(-n4c(=O)n([C@H]5CC[C@@H](NC(=O)c6cc7ccccc7cn6)CC5)c(=O)c5cc(F)cnc54)c3)cc2)C[C@H](C)N1` [Example 304, N-{cis-4-[1-(4′-{[(3R,5S)-3,5-dimethylpiperazin-1-yl]methyl}biphenyl-3-yl)-6-fluoro-2,4-dioxo-1,4-dihydropyrido[2,3-d]pyrimidin-3(2H)-yl]cyclohexyl} isoquinoline-3-carboxamide], the IC50 was 0.0501 nM.

On to `O=c1c2cc(F)cnc2n(-c2cccc(-c3ccc(O)cc3CN3CCOCC3)c2)c(=O)n1[C@H]1CC[C@@H](NCc2ncc3ccccn23)CC1` [Example 374, 6-fluoro-1-[4′-hydroxy-2′-(morpholin-4-ylmethyl)biphenyl-3-yl]-3-{cis-4-[(imidazo[1,5-a]pyridin-3-ylmethyl)amino]cyclohexyl}pyrido[2,3-d] pyrimidine-2,4(1H,3H)-dione], for which the IC50 was 0.0631 nM.

`O=C(N[C@H]1CC[C@@H](n2c(=O)c3cc(F)cnc3n(-c3ccc(Cc4ccccc4)cc3)c2=O)CC1)c1cn2cc(F)ccc2n1` [Example 37, N-{cis-4-[1-(4-benzylphenyl)-6-fluoro-2,4-dioxo-1,4-dihydropyrido[2,3-d]pyrimidin-3(2H)-yl]cyclohexyl}-6-fluoroimidazo[1,2-a]pyridine-2-carboxamide]: the IC50 is 6.31 nM.

Regarding `CN(C)Cc1ccc(-c2cccc(-n3c(=O)n([C@H]4CC[C@@H](NC(=O)c5ccccc5OCCO)CC4)c(=O)c4cc(F)cnc43)c2)cc1` [Example 272, N-{cis-4-[1-{4′-[(Dimethylamino)methyl]biphenyl-3-yl}-6-fluoro-2,4-dioxo-1,4-dihydropyrido[2,3-d]pyrimidin-3(2H)-yl]cyclohexyl}-2-(2-hydroxyethoxy)benzamide], the IC50 is 0.794 nM.

Turning to `O=c1c2cc(F)cnc2n(-c2cccc(-c3ccc(CN4CCNCC4)cc3)c2)c(=O)n1[C@H]1CC[C@@H](NCc2cn3cc(F)ccc3n2)CC1` [Example 75, 6-fluoro-3-(cis-4-{[(6-fluoroimidazo[1,2-a]pyridin-2-yl)methyl]amino}cyclohexyl)-1-[4′-(piperazin-1-ylmethyl)biphenyl-3-yl]pyrido[2,3-d]pyrimidine-2,4(1H,3H)-dione], the IC50 is 0.316 nM.

In the case of `CN(C)CCc1ccc(-c2cccc(-n3c(=O)n([C@H]4CC[C@@H](NC(=O)c5cn6cc(F)ccc6n5)CC4)c(=O)c4cc(F)cnc43)c2)cc1` [Example 99, N-{cis-4-[1-{4′-[2-(dimethylamino)ethyl]biphenyl-3-yl}-6-fluoro-2,4-dioxo-1,4-dihydropyrido[2,3-d]pyrimidin-3(2H)-yl]cyclohexyl}-6-fluoroimidazo[1,2-a]pyridine-2-carboxamide], the IC50 was 0.126 nM.

The values above are taken from US20100204203A1, “Chemical Compounds 637: Pyridopyrimidinediones as PDE4 Inhibitors” (priority 2007, published 2010).
